Reference: patent US12692269B2, “Therapeutic compounds” (Genentech, Inc., priority 2019, dated 2026)

What was measured:
Format in all cases: binding
[1] = molecular target: TEAD1 YAP50-100 (Homo sapiens, UniProt P28347); assay: TEAD1-YAP HTRF (TR-FRET) protein-protein interaction assay; conditions: TEAD1, YAP peptide 50-100, HTRF; for EC50: read-out: TEAD1 YAP50-100 HTRF combined: EC50
Summary of the method: (§1)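 His-tagged TEAD YAP-binding domain (aa 217-447) pre-bound to Eu anti-His tracer, incubated with compound 30 min, then biotinylated YAP (aa 50-100) or TAZ (aa 13-57) peptide with streptavidin-XL665 added for 60 min at room temperature. TR-FRET read at 665/615 nm; IC50 or EC50 from four-parameter fit.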

[2] = molecular target: TEAD2 YAP50-100 (Homo sapiens, UniProt Q15562); assay: TEAD2-YAP HTRF (TR-FRET) protein-protein interaction assay; conditions: TEAD2, YAP peptide 50-100, HTRF; for EC50: read-out: TEAD2 YAP50-100 HTRF combined: EC50
Summary of the method: as §1

[3] = molecular target: TEAD3 YAP50-100 (Homo sapiens, UniProt Q99594); assay: TEAD3-YAP HTRF (TR-FRET) protein-protein interaction assay; conditions: TEAD3, YAP peptide 50-100, HTRF; for EC50: read-out: TEAD3 YAP50-100 HTRF combined: EC50
Summary of the method: as §1

[4] = molecular target: TEAD4 YAP50-100 (Homo sapiens, UniProt Q15561); assay: TEAD4-YAP HTRF (TR-FRET) protein-protein interaction assay; conditions: TEAD4, YAP peptide 50-100, HTRF; for EC50: read-out: TEAD4 YAP50-100 HTRF combined: EC50
Summary of the method: as §1

[5] = molecular target: TEAD1 TAZ (amino acids 13-57) (Homo sapiens, UniProt P28347); assay: TEAD1-TAZ HTRF (TR-FRET) protein-protein interaction assay; conditions: for TEAD1 TAZ HTRF combined: Max % Inhibition: TEAD1, TAZ peptide; for EC50: TEAD1-TAZ HTRF, TR-FRET 665 nm/615 nm, read-out: TEAD1 TAZ HTRF combined: EC50
Summary of the method: as §1

[6] = molecular target: TEAD2 TAZ (amino acids 13-57) (Homo sapiens, UniProt Q15562); assay: TEAD2-TAZ HTRF (TR-FRET) protein-protein interaction assay; conditions: for TEAD2 TAZ HTRF combined: Max % Inhibition: TEAD2, TAZ peptide; for EC50: TEAD2-TAZ HTRF, TR-FRET 665 nm/615 nm, read-out: TEAD2 TAZ HTRF combined: EC50
Summary of the method: as §1

[7] = molecular target: TEAD3 TAZ (amino acids 13-57) (Homo sapiens, UniProt Q99594); assay: TEAD3-TAZ HTRF (TR-FRET) protein-protein interaction assay; conditions: for TEAD3 TAZ HTRF combined: Max % Inhibition: TEAD3, TAZ peptide; for EC50: TEAD3-TAZ HTRF, TR-FRET 665 nm/615 nm, read-out: TEAD3 TAZ HTRF combined: EC50
Summary of the method: as §1

[8] = molecular target: TEAD4 TAZ (amino acids 13-57) (Homo sapiens, UniProt Q15561); assay: TEAD4-TAZ HTRF (TR-FRET) protein-protein interaction assay; conditions: for TEAD4 TAZ HTRF combined: Max % Inhibition: TEAD4, TAZ peptide; for EC50: TEAD4-TAZ HTRF, TR-FRET 665 nm/615 nm, read-out: TEAD4 TAZ HTRF combined: EC50
Summary of the method: as §1

TEAD2 YAP50-100, sequence (Q15562 217-447): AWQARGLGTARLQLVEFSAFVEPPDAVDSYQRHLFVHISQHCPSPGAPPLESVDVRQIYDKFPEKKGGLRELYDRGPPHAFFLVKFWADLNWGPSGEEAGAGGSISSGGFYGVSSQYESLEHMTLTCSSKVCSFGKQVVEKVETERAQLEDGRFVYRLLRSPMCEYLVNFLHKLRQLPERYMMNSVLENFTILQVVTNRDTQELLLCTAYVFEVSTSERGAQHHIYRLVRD
TEAD2 TAZ (amino acids 13-57), sequence (Q15562 217-447): as above
TEAD3 YAP50-100, sequence (Q99594 173-435 limits assumed): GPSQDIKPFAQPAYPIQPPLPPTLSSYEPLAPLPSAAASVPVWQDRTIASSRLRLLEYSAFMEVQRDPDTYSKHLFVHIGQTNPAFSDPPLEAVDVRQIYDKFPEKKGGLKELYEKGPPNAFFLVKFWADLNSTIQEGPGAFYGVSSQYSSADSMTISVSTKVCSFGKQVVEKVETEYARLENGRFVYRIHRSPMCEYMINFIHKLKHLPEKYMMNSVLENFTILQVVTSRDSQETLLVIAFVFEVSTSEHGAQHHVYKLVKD
TEAD3 TAZ (amino acids 13-57), sequence (Q99594 173-435 limits assumed): as above
TEAD1 TAZ (amino acids 13-57), sequence (P28347 167-426 limits assumed): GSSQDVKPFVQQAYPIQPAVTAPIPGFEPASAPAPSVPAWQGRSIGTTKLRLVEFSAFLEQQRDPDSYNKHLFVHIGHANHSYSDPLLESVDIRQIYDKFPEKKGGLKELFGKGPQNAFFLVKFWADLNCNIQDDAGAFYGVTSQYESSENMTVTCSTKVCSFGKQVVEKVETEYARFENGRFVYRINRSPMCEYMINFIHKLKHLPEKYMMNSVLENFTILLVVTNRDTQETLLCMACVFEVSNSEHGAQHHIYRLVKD
TEAD1 YAP50-100, sequence (P28347 167-426 limits assumed): as above
TEAD4 YAP50-100, sequence (Q15561 217-434 limits assumed): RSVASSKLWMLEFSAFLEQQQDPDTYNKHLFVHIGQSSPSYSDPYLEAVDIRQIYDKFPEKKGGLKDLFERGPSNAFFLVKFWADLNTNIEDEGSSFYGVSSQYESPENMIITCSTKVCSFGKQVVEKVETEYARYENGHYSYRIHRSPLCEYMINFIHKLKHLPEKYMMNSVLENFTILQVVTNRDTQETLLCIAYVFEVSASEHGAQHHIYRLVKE
TEAD4 TAZ (amino acids 13-57), sequence (Q15561 217-434 limits assumed): as above

| Compound | TEAD1 YAP50-100 HTRF combined: Max % Inhibition [1] [%] | EC50 [1] [nM] | TEAD2 YAP50-100 HTRF combined: Max % Inhibition [2] [%] | EC50 [2] [nM] | TEAD3 YAP50-100 HTRF combined: Max % Inhibition [3] [%] | EC50 [3] [nM] | TEAD4 YAP50-100 HTRF combined: Max % Inhibition [4] [%] | EC50 [4] [nM] | TEAD1 TAZ HTRF combined: Max % Inhibition [5] [%] | EC50 [5] [nM] | TEAD2 TAZ HTRF combined: Max % Inhibition [6] [%] | EC50 [6] [nM] | TEAD3 TAZ HTRF combined: Max % Inhibition [7] [%] | EC50 [7] [nM] | TEAD4 TAZ HTRF combined: Max % Inhibition [8] [%] | EC50 [8] [nM] |
| --- | --- | --- | --- | --- | --- | --- | --- | --- | --- | --- | --- | --- | --- | --- | --- | --- |
| CCCCc1ccc(-c2cc(=O)n3nc(-c4nccnc4C)c(C(=O)N4CC(CF)C4)c3[nH]2)cc1 [Compound 58, 5-(4-Butylphenyl)-3-(3-(fluoromethyl)azetidine-1-carbonyl)-2-(3-methylpyrazin-2-yl)pyrazolo[1,5-a]pyrimidin-7(4H)-one] | 71.0 | 40 | 63.0 | 10 | 64.5 | 90 | 59.0 | 180 | 70.5 | 40 | 66.5 | 10 | 58.5 | 100 | 68.5 | 140 |
| Cc1nccnc1-c1nn2c(=O)cc(-c3ccc(C4(F)CCCCC4)cc3)[nH]c2c1C(=O)N1CC(CF)C1 [Compound 59, 5-(4-(1-Fluorocyclohexyl)phenyl)-3-(3-(fluoromethyl)azetidine-1-carbonyl)-2-(3-methylpyrazin-2-yl)pyrazolo[1,5-a]pyrimidin-7(4H)-one] | 68.0 | 160 | 61.5 | 30 | 65.5 | 290 | 40.0 | 180 | 65.5 | 160 | 61.0 | 30 | 59.0 | 340 | 42.5 | 180 |
| Cc1nccnc1-c1nn2c(=O)cc(-c3ccc(-c4ccccc4)cc3)[nH]c2c1C(=O)N1CC(CF)C1 [Compound 60, 5-([1,1′-Biphenyl]-4-yl)-3-(3-(fluoromethyl)azetidine-1-carbonyl)-2-(3-methylpyrazin-2-yl)pyrazolo[1,5-a]pyrimidin-7(4H)-one] | 80.0 | 30 | 66.5 | 10 | 78.0 | 200 | 60.0 | 610 | 78.5 | 40 | 66.5 | 10 | 74.0 | 220 | 64.0 | 510 |
| Cc1nccnc1-c1nn2c(=O)cc(-c3ccc(O[C@@H](c4ccccc4)C(F)(F)F)cc3)[nH]c2c1C(=O)N1CC(CF)C1 [Compound 67, (S)-3-(3-(Fluoromethyl)azetidine-1-carbonyl)-2-(3-methylpyrazin-2-yl)-5-(4-(2,2,2-trifluoro-1-phenylethoxy)phenyl)pyrazolo[1,5-a]pyrimidin-7(4H)-one] | 69.0 | 190 | 92.5 | 50 | 79.0 | 180 | 72.5 | 4250 | 65.0 | 220 | 89.0 | 50 | 71.0 | 200 | 71.5 | 4000 |

The next lines start with the values.

| TEAD1 YAP50-100 HTRF combined: Max % Inhibition [1] [%] | EC50 [1] [nM] | TEAD2 YAP50-100 HTRF combined: Max % Inhibition [2] [%] | EC50 [2] [nM] | TEAD3 YAP50-100 HTRF combined: Max % Inhibition [3] [%] | EC50 [3] [nM] | TEAD4 YAP50-100 HTRF combined: Max % Inhibition [4] [%] | EC50 [4] [nM] | TEAD1 TAZ HTRF combined: Max % Inhibition [5] [%] | EC50 [5] [nM] | TEAD2 TAZ HTRF combined: Max % Inhibition [6] [%] | EC50 [6] [nM] | TEAD3 TAZ HTRF combined: Max % Inhibition [7] [%] | EC50 [7] [nM] | TEAD4 TAZ HTRF combined: Max % Inhibition [8] [%] | EC50 [8] [nM] | Compound |
| --- | --- | --- | --- | --- | --- | --- | --- | --- | --- | --- | --- | --- | --- | --- | --- | --- |
| 65.0 | 190 | 84.0 | 60 | 67.5 | 510 | 64.5 | 5550 | 63.0 | 270 | 75.5 | 60 | 64.5 | 590 | 61.5 | 4950 | Cc1nccnc1-c1nn2c(=O)cc(-c3ccc(O[C@H](c4ccccc4)C(F)(F)F)cc3)[nH]c2c1C(=O)N1CC(CF)C1 [Compound 68, (R)-3-(3-(Fluoromethyl)azetidine-1-carbonyl)-2-(3-methylpyrazin-2-yl)-5-(4-(2,2,2-trifluoro-1-phenylethoxy)phenyl)pyrazolo[1,5-a]pyrimidin-7(4H)-one] |
| 79.0 | 40 | 76.0 | 10 | 80.0 | 110 | 62.5 | 170 | 73.5 | 50 | 75.5 | 10 | 75.5 | 120 | 65.5 | 130 | Cc1nccnc1-c1nn2c(=O)cc(-c3ccc(C4CCCC4)cc3)[nH]c2c1C(=O)N1C[C@H](CF)[C@@H]1C [Compound 69, 5-(4-Cyclopentylphenyl)-3-((2S,3S)-3-(fluoromethyl)-2-methylazetidine-1-carbonyl)-2-(3-methylpyrazin-2-yl)pyrazolo[1,5-a]pyrimidin-7(4H)-one] |
| 58.0 | 10 | 67.0 | – | 64.0 | 40 | 58.0 | 1300 | 54.5 | 20 | 66.0 | 10 | 52.5 | 30 | 63.5 | 970 | CCCCCCC/C=C/c1cc(=O)n2nc(-c3nccnc3C)c(C(=O)N3C[C@H](CF)[C@@H]3C)c2[nH]1 [Compound 70, 3-((2S,3S)-3-(fluoromethyl)-2-methylazetidine-1-carbonyl)-2-(3-methylpyrazin-2-yl)-5-((E)-non-1-en-1-yl)pyrazolo[1,5-a]pyrimidin-7(4H)-one] |
| 53.0 | 50 | 64.0 | 10 | 61.0 | 60 | 48.5 | 3450 | 52.5 | 50 | 64.0 | 10 | 49.0 | 50 | 56.5 | 3000 | CCCCCCCCCc1cc(=O)n2nc(-c3nccnc3C)c(C(=O)N3C[C@H](CF)[C@@H]3C)c2[nH]1 [Compound 71, 3-((2S,3S)-3-(fluoromethyl)-2-methylazetidine-1-carbonyl)-2-(3-methylpyrazin-2-yl)-5-nonylpyrazolo[1,5-a]pyrimidin-7(4H)-one] |
| 77.0 | 70 | 73.0 | 20 | 76.0 | 160 | 54.0 | 30 | 74.0 | 80 | 75.0 | 20 | 71.5 | 170 | 56.0 | 30 | [2H]C1([2H])C([2H])([2H])C([2H])([2H])C([2H])(c2ccc(-c3cc(=O)n4nc(-c5nccnc5C)c(C(=O)N5C[C@H](CF)[C@@H]5C)c4[nH]3)cc2)C([2H])([2H])C1([2H])[2H] [Compound 72, 3-[(2S,35)-3-(fluoromethyl)-2-methyl-azetidine-1-carbonyl]-2-(3-methylpyrazin-2-yl)-5-[4-(1,2,2,3,3,4,4,5,5,6,6-undecadeuteriocyclohexyl)phenyl]-4H-pyrazolo[1,5-a]pyrimidin-7-one] |
